Reference: ChEMBL document CHEMBL1134829, “7-Alkyl- and 7-cycloalkyl-5-aryl-pyrrolo[2,3-d]pyrimidines--potent inhibitors of the tyrosine kinase c-Src” (Bioorg Med Chem Lett, 2001)

Tests used:
[1] = molecular target: Epidermal growth factor receptor (Homo sapiens, UniProt P00533); assay: Inhibition of Epidermal growth factor receptor (EGF-R) tyrosine kinase activity
[2] = molecular target: T1, Proto-oncogene tyrosine-protein kinase Src (Gallus gallus, UniProt P00523); assay: Inhibition of p60 c-Src tyrosine kinase activity
[3] = molecular target: T1, Proto-oncogene tyrosine-protein kinase Src; assay: Inhibition of p60 c-Src tyrosine kinase mediated phosphorylation of Fak in IC8.1 fibroblasts; type: functional
[4] = molecular target: Tyrosine-protein kinase ABL (Homo sapiens, UniProt P00519+P42684)
Description: Inhibition of v-Abl tyrosine kinase activity

[5] = molecular target: T1, Proto-oncogene tyrosine-protein kinase Src; assay: Inhibition of p60 c-Src tyrosine kinase at 830 ng/mL

Sequence of Epidermal growth factor receptor (P00533 whole entry): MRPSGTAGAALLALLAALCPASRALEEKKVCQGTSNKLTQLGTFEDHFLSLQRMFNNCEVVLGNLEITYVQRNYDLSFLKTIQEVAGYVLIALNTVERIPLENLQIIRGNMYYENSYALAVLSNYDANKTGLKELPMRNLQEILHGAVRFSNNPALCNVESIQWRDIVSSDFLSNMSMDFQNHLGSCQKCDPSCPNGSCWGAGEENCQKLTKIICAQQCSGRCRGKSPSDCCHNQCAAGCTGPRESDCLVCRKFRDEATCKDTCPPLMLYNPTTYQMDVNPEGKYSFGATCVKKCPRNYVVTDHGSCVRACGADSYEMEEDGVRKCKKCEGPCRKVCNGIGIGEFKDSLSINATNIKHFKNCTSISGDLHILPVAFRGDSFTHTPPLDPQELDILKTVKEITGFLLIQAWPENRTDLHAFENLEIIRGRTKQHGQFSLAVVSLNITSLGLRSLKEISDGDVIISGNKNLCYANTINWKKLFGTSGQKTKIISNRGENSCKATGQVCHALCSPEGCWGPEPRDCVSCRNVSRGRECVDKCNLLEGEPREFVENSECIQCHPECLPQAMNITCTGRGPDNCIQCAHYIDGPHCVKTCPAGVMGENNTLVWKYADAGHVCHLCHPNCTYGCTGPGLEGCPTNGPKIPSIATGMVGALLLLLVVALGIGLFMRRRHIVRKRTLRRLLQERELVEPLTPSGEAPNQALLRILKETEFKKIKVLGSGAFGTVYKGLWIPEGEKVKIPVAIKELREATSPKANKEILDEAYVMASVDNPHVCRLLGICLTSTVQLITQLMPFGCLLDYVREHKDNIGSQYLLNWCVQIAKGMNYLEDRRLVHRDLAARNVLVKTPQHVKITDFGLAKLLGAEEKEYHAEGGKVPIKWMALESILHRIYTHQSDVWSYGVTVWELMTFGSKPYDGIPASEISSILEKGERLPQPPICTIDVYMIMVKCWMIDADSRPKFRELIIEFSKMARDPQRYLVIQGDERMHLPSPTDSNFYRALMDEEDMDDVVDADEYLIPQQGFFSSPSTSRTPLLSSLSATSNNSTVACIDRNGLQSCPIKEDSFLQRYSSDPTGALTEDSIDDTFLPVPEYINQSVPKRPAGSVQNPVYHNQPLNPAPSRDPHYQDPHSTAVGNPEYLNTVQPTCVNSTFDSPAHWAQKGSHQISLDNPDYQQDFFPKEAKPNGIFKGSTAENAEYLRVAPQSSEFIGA

Structure (SMILES) | IC50 [1] | IC50 [2] | IC50 [3] | IC50 [4] | IC50 [5]
COc1ccc(CC(CO)n2cc(-c3cccc(OC)c3)c3c(N)ncnc32)cc1 (stereo unspecified) | 9700 nM | 1000 nM | – | – | –
COc1ccc(-c2cn(C3CCC3)c3ncnc(N)c23)cc1 | – | 200 nM | 3000 nM | – | –
COc1ccc(CC(CO)n2cc(-c3cccc(O)c3)c3c(N)ncnc32)cc1 (stereo unspecified) | 3400 nM | 42 nM | 400 nM | 0.34 µM | –
Nc1ncnc2c1c(-c1ccccc1)cn2C(CO)Cc1ccc(O)cc1 (stereo unspecified) | 13200 nM | 1900 nM | – | 2.2 µM | –
COc1ccc(CC(CO)n2cc(-c3ccccc3)c3c(N)ncnc32)cc1 (stereo unspecified) | 14400 nM | > 1000 nM | > 5000 nM | > 10 µM | –
Nc1ncnc2c1c(-c1ccccc1)cn2C(CO)Cc1ccccc1 (stereo unspecified) | 440 nM | 600 nM | – | 10.5 µM | –
Nc1ncnc2c1c(-c1ccccc1)cn2C1CCCC1 | 500 nM | 140 nM | 1800 nM | 0.14 µM | –
Nc1ncnc2c1c(-c1cccc(O)c1)cn2C1CCC1 | 300 nM | 4 nM | 100 nM | 0.005 µM | –
Nc1ncnc2c1c(-c1ccccc1)cn2C(CO)CCc1ccccc1 (stereo unspecified) | – | 4000 nM | – | – | –
Nc1ncnc2c1c(-c1ccccc1)cn2[C@@H](CO)c1ccccc1 | – | 480 nM | > 5000 nM | – | –
Nc1ncnc2c1c(-c1ccccc1)cn2[C@H](CO)c1ccccc1 | – | – | – | – | 4.9 µM

Further lines, results first:

IC50 [1] | IC50 [2] | IC50 [3] | IC50 [4] | IC50 [5] | Structure (SMILES)
600 nM | 10 nM | 1500 nM | 0.085 µM | – | Nc1ncnc2c1c(-c1ccc(O)cc1)cn2C1CCC1
730 nM | 110 nM | 1000 nM | 0.09 µM | – | Nc1ncnc2c1c(-c1ccccc1)cn2C1CCC1
2820 nM | 20 nM | 4000 nM | 0.39 µM | – | Nc1ncnc2c1c(-c1ccccc1)cn2C1CC(O)C1 (stereo unspecified)
790 nM | 50 nM | 200 nM | 0.04 µM | – | Nc1ncnc2c1c(-c1ccccc1)cn2C1CCC(O)C1 (stereo unspecified)
460 nM | 2 nM | 170 nM | 0.17 µM | – | COc1cccc(-c2cn(C3CCCC3)c3ncnc(N)c23)c1
490 nM | 20 nM | 300 nM | 0.42 µM | – | COc1cccc(-c2cn(C3CC(CNCCO)C3)c3ncnc(N)c23)c1 (stereo unspecified)
80 nM | 1 nM | 200 nM | – | – | Nc1ncnc2c1c(-c1cccc(O)c1)cn2C1CCCC1
250 nM | 20 nM | 300 nM | 0.11 µM | – | Nc1ncnc2c1c(-c1ccc(O)cc1)cn2C1CCCC1
570 nM | 80 nM | 1200 nM | 0.26 µM | – | COc1ccc(-c2cn(C3CCCC3)c3ncnc(N)c23)cc1
– | 30 nM | 2000 nM | 0.04 µM | – | COc1cccc(-c2cn(C3CC(CO)C3)c3ncnc(N)c23)c1 (stereo unspecified)
330 nM | 20 nM | 4000 nM | 0.23 µM | – | COc1cccc(-c2cn(C3CC(C(=O)NCCO)C3)c3ncnc(N)c23)c1 (stereo unspecified)
450 nM | 40 nM | 600 nM | 0.05 µM | – | COc1cccc(-c2cn(C3CCC3)c3ncnc(N)c23)c1
